Measurements as given in article PMC4508061, “Selectivity Profiling and Biological Activity of Novel β-Carbolines as Potent and Selective DYRK1 Kinase Inhibitors” (PLoS ONE, 2015).
Read-outs that look alike come from different tables or passages of the source.

Legend:
[1] = Cell viability XTT assay; format: cell-based; settings: rat, PC12 cells, read-out: Viability of treated cells relative to untreated control; for viability at 3 days, 1 µM: PC12, 1 μM; for viability at 3 days, 3 µM: PC12, 3 μM; for viability at 3 days, 10 µM: PC12, 10 μM
[2] = Cell viability XTT assay; format: cell-based; settings: human, HeLa cells, read-out: Viability of treated cells relative to untreated control
[3] = target: T1, CLK1 (Homo sapiens, UniProt P49759); assay: Kinase-GLO luminescent kinase assay; format: biochemical; set-up: made in house; host or cells: E. coli; settings: 1 μM compound; means of at least 3 measurements
Description: (§1) Bacterial expression plasmids for GST-DYRK1A-ΔC and GST-DYRK2 have been described earlier. […] Expression in logarithmically growing E. coli culture was performed for 3 h at 37°C (GST-DYRK1A-ΔC and GST-DYRK2), 3 h at 26°C (GST-HIPK2cat), over night at 28°C (GST-CLK1cat) or over night at room temperature (GST-DYRK1Bcat).
(§2) Compounds were screened for inhibitory effects against GST-DYRK1A-ΔC, GST-DYRK1Bcat, GST-DYRK2, GST-CLK1cat or GST-HIPK2cat using the Kinase-GLO Luminescent Kinase Assay from Promega. Assays were performed in a total volume of 10 μL in kinase-buffer (25 mM Hepes pH 7.4, 0.5 mM DTT, 5 mM MgCl2, 5 μM ATP) with appropriate peptide substrates (20 μM DYRKtide for the DYRKs and 100 μM DYRKtide for HIPK2, […]; or 100 μM RS domain-derived peptide for CLK1, […]). Assays were started with this amount of a kinase preparation that consumed approximately 90% of the ATP in the assay (linear range of the kinase titration curve). The reactions were run at room temperature for 30 min before 10 μL Kinase-GLO reagent was added. After incubation at room temperature for additional 10 min, luminescence was recorded for 1 s.

[4] = target: DYRK1B (Homo sapiens, UniProt Q9Y463); assay: Kinase-GLO luminescent kinase assay; format: biochemical; set-up: made in house; host or cells: E. coli; settings: 1 μM compound; means of at least 3 measurements
Description: as §1, §2

[5] = target: HIPK2 (Homo sapiens, UniProt Q9H2X6); assay: Kinase-GLO luminescent kinase assay; format: biochemical; set-up: made in house; host or cells: E. coli; settings: 10 μM compound; means of at least 3 measurements
HIPK2, sequence (Q9H2X6 180-533): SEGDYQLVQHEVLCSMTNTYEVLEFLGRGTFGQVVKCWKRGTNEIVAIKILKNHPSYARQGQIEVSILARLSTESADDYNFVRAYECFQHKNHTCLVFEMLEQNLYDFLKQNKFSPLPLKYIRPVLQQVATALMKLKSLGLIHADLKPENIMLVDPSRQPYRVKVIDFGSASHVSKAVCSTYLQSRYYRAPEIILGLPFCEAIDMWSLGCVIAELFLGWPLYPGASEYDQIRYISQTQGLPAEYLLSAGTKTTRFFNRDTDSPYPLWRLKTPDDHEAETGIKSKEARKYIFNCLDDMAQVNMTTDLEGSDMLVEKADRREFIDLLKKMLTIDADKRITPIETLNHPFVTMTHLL
Description: as §1, §2

[6] = Cell viability XTT assay; format: cell-based; settings: human, SH-SY5Y cells, read-out: Viability of treated cells relative to untreated control
[7] = target: T2, DYRK1A (Rattus norvegicus, UniProt Q63470); assay: Radioactive kinase assay (DYRKtide, 33P-ATP); format: biochemical; settings: 100 μM ATP, n = 3–5 concentration response curves, read-out: Inhibition of DYRK1A IC50
T2 construct: Bacterial expression plasmids for GST-DYRK1A-ΔC and GST-DYRK2 have been described earlier; made in house; host or cells: E. coli
Description: Each sample was assayed in triplicate. […]
estimate solubility and permeability in drug discovery and development settings. Adv. Drug Delivery Rev. 23, 4-25. […]
that influence the oral bioavailability of drug candidates. […]
c estimated using the Molinspiration logP engine. […]
log [inhibitor,M] log [inhibitor, M]
(§3) 2 were calculated. Kinase activity of DYRK1A was determined by radiometric assays using the peptide DYRKtide as a substrate. MAO-A activity was measured with the help of the MAO-GLO assay kit (Promega). IC50 values were calculated by curve fitting with the help of […]
(§4) the […] PRISM 5.0 program after automatic outlier elimination. The graphs present

[8] = target: T3, MAO-A (Homo sapiens, UniProt P21397); assay: MAO-GLO assay; format: biochemical; settings: for IC50: read-out: Inhibition of MAO-A IC50
T3 sequence (P21397 1-527): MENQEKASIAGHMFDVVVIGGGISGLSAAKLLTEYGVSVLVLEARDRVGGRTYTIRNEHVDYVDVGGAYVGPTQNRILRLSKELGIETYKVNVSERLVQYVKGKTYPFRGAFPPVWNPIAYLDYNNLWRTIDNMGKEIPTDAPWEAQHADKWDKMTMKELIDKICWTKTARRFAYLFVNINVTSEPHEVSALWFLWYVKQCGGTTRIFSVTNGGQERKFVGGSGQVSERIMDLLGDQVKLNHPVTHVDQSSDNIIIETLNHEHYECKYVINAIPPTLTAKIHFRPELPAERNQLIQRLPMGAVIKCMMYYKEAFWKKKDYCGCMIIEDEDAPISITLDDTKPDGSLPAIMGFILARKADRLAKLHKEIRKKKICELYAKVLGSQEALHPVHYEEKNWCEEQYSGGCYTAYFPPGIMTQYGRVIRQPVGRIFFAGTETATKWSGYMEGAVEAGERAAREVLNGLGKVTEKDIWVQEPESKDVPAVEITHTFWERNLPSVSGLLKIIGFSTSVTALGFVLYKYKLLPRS
Description: as §3, §4

[9] = target: T4, DYRK1A (Homo sapiens, UniProt Q13627); assay: Kinase-GLO luminescent kinase assay; format: biochemical; settings: 1 μM compound; means of at least 3 measurements
T4 construct: purchased ProQinase (Freiburg, Germany)
Description: as §1, §2

[10] = target: T5, DYRK2 (Homo sapiens, UniProt Q92630); assay: Kinase-GLO luminescent kinase assay; format: biochemical; settings: 1 μM compound; means of at least 3 measurements
T5 construct: purchased ProQinase (Freiburg, Germany)
T5 sequence (Q92630 1-601): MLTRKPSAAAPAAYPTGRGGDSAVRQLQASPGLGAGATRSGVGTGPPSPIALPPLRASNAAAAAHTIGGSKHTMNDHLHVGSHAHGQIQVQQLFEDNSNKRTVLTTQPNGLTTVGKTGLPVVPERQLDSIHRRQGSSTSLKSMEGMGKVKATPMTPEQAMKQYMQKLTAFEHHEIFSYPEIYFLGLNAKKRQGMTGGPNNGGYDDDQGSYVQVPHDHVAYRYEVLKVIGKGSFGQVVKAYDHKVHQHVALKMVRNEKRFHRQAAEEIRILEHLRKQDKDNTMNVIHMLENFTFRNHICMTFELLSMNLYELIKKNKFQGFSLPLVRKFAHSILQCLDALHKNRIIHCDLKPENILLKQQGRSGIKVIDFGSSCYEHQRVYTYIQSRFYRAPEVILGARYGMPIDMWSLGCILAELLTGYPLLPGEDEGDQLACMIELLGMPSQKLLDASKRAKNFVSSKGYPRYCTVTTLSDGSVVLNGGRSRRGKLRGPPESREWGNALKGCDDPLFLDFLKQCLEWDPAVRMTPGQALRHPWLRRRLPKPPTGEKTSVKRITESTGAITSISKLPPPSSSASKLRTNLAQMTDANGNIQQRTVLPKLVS
Description: as §1, §2

[11] = target: HIPK1 (Homo sapiens, UniProt Q86Z02); set-up: purchased ProQinase (Freiburg, Germany); settings: 10 μM; cited from earlier work
HIPK1, sequence (Q86Z02 whole entry): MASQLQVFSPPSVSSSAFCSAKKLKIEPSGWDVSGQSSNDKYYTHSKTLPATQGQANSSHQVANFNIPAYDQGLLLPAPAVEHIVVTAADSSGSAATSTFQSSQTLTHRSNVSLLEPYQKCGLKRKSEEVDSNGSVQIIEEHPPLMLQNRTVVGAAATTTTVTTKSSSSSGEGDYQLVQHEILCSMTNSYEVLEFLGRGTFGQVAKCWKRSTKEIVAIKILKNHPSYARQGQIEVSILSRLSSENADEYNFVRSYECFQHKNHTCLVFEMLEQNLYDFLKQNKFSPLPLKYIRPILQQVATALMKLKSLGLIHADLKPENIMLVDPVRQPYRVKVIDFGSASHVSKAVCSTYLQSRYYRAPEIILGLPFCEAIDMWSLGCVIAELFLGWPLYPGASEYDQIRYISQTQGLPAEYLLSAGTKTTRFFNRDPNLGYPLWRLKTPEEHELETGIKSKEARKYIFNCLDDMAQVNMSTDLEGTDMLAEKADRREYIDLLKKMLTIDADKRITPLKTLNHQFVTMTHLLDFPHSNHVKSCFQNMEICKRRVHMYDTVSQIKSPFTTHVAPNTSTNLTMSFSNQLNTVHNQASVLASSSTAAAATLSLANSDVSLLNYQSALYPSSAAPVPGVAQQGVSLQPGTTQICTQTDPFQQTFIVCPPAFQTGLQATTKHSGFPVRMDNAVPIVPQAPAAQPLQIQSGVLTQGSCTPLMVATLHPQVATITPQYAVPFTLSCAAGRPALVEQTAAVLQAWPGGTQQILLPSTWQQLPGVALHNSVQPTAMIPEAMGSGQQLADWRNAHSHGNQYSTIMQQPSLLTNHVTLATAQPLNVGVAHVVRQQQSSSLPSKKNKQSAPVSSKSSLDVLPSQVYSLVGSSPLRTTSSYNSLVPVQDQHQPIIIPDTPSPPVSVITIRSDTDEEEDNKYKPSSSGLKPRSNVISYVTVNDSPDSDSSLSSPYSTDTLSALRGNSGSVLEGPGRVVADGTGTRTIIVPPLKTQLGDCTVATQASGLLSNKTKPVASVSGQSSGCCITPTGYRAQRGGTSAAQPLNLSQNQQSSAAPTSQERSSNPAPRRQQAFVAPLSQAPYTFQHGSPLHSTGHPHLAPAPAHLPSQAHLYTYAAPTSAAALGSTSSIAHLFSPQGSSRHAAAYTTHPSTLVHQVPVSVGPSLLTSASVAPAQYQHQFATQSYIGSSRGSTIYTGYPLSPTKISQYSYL

[12] = target: T6, CLK3 (Homo sapiens, UniProt P49761); settings: 10 μM; cited from earlier work
T6 construct: purchased ProQinase (Freiburg, Germany)
T6 sequence (P49761 whole entry): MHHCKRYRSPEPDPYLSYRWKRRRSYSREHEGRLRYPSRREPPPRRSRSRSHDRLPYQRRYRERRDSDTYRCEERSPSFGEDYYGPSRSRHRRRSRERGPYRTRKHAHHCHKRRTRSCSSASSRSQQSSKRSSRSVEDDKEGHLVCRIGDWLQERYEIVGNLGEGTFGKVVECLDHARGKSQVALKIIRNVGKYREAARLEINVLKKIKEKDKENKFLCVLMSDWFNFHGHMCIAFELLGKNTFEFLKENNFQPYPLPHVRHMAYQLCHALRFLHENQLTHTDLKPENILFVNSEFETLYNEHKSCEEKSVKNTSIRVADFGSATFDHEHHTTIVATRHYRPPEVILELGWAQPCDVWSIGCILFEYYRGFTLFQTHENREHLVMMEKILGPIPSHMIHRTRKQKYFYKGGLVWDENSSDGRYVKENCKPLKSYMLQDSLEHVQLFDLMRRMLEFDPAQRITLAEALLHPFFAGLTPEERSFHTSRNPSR

[13] = tested on: DYRK1A; settings: given because %-activity values are not given in the reference; read-out: IC50; cited from earlier work
[14] = target: T7, CLK2 (Homo sapiens, UniProt P49760); settings: 10 μM; cited from earlier work
T7 construct: purchased ProQinase (Freiburg, Germany)
T7 sequence (P49760 whole entry): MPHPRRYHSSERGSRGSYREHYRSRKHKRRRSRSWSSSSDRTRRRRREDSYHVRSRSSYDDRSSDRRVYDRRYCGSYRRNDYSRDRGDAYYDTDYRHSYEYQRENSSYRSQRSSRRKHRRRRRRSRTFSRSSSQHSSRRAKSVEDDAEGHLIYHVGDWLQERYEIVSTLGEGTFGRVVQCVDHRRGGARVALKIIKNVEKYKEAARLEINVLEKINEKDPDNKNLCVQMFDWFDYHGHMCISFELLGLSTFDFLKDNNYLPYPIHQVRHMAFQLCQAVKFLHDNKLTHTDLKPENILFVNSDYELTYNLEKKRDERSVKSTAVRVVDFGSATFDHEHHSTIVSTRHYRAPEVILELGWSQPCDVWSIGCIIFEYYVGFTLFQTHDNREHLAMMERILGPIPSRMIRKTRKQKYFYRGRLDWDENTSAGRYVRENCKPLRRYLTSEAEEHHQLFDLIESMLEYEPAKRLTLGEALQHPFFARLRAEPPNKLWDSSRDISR

[15] = target: T8, DYRK3 (Homo sapiens, UniProt O43781); settings: 10 μM; cited from earlier work
T8 construct: purchased ProQinase (Freiburg, Germany)
T8 sequence (O43781 1-588): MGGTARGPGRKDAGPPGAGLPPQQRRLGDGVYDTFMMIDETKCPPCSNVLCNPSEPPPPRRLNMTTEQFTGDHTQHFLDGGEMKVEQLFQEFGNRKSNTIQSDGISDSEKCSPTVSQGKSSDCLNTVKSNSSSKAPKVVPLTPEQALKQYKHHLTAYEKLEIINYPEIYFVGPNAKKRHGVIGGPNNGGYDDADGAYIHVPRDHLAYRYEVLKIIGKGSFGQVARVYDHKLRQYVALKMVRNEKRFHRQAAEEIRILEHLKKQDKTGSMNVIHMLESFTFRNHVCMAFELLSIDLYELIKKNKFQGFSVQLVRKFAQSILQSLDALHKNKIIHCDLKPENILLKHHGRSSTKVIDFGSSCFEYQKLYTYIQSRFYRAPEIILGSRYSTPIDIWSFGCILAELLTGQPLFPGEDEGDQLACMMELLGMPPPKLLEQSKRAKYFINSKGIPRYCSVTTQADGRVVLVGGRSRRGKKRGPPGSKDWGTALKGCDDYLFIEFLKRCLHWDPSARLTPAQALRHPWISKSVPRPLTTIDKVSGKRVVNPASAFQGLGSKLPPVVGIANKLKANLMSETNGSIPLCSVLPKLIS

[16] = target: T1, CLK1; set-up: purchased ProQinase (Freiburg, Germany); settings: 10 μM; cited from earlier work
[17] = target: T9, DYRK4 (Homo sapiens, UniProt Q9NR20); settings: 10 μM; cited from earlier work
T9 construct: purchased ProQinase (Freiburg, Germany)
T9 sequence (Q9NR20 whole entry): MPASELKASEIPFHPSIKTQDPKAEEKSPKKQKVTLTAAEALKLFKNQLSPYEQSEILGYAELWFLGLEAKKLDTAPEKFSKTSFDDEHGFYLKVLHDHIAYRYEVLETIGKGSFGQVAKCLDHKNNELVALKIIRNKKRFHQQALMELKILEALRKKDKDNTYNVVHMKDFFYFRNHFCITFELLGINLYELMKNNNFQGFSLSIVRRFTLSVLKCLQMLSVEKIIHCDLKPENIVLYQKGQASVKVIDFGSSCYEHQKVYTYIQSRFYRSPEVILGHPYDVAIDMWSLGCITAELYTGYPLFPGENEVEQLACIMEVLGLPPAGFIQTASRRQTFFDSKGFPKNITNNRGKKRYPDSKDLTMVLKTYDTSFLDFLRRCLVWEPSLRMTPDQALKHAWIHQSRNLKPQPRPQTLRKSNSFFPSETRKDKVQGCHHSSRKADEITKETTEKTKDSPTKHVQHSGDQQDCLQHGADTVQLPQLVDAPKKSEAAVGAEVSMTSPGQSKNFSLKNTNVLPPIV

[18] = target: T5, DYRK2; settings: 10 μM; cited from earlier work
[19] = target: PIM1 (Homo sapiens, UniProt P11309); set-up: purchased ProQinase (Freiburg, Germany); settings: 10 μM; cited from earlier work
PIM1, sequence (P11309 whole entry): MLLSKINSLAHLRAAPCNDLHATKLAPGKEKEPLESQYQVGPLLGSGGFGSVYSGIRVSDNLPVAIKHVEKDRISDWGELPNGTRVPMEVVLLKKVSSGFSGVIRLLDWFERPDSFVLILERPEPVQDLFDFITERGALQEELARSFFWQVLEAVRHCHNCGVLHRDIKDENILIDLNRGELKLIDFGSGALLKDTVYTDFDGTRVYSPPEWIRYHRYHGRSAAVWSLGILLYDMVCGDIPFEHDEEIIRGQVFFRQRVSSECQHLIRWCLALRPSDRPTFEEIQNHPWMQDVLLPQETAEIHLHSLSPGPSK

[20] = n = 3–5 concentration response curves

Row | Compound | viability at 3 days, 1 µM [1] | viability at 3 days, 3 µM [1] | viability at 3 days, 10 µM [1] | viability at 3 days, 1 µM [2] | viability at 3 days, 3 µM [2] | viability at 3 days, 10 µM [2] | Residual activity (% of control) CLK1 [3] | Residual activity (% of control) DYRK1B [4] | Residual activity (% of control) HIPK2 [5] | viability at 3 days, 1 µM [6] | viability at 3 days, 3 µM [6] | viability at 3 days, 10 µM [6] | IC50 [7] | IC50 [8, 20] | Residual activity (% of control) DYRK1A [9] | Residual activity (% of control) DYRK2 [10] | other results
1 | COc1ccc2c3ccnc(C)c3n(CC#N)c2c1 [AnnH31] | 89% | 88% | 70% | 93% | 80% | 55% | 11 % of control | 7 % of control | 70 % of control | 81% | 88% | 38% | 81 nM | 3240 nM | 8 % of control | 59 % of control | inhibition at 1 µM ([8]; 1 μM, primary screen): 25%; selectivity for DYRK1A over MAO-A ([8]; ratio of IC50 values): 40 fold; IC50 [8]: 3200 nM
2 | COc1ccc2c3ccnc(C)c3n(C(C)C#N)c2c1 (centres unmarked) [AnnH43] | 88% | 88% | 90% | 91% | 80% | 66% | 10 % of control | 14 % of control | 84 % of control | 61% | 68% | 45% | 202 nM | 5390 nM | 5 % of control | 56 % of control | –
3 | CCN1/C(=C/C(C)=O)Sc2ccc(O)cc21 [INDY] | – | – | – | – | – | – | – | – | – | – | – | – | – | – | – | – | Residual activity (% of control) [11]: 64 % of control; Residual activity (% of control) [12]: 30 % of control; IC50 [13]: […]; Residual activity (% of control) [14]: 12 % of control; Residual activity (% of control) [15]: 0 % of control; Residual activity (% of control) [16]: 1 % of control; Residual activity (% of control) [17]: 13 % of control; Residual activity (% of control) [18]: 3 % of control; Residual activity (% of control) [19]: 2 % of control
